Laboratory results taken from publication PMC314469, “Protein Interaction Networks by Proteome Peptide Scanning” (PLoS Biology, 2004).

Test system: Myo5 SH3 domain
Experiment: SPOT analysis of cellulose-bound peptides (WISE), Myo5 SH3 domain (Dataset S4)
Format: binding, Saccharomyces cerevisiae
Conditions: for The normalized value in BLU units: Myo5 SH3 domain
[1] = SPOT analysis of cellulose-bound peptides probed with Myo5 SH3 domain, normalized value
[2] = SPOT analysis of membrane-synthesized peptides probed with Myo5 SH3 domain, normalized value
[3] = SPOT analysis of cellulose-bound 14-mer yeast proteome peptides, normalized value, mean where the peptide was synthesized more than once
[4] = SPOT analysis of membrane-bound peptides, normalized value (see methods)

NAIAMALPNEPYPA
The normalized value in BLU units (SPOT analysis, Myo5 SH3) [1]: 96.8 BLU

MAFIKILPNNPWPF
The normalized value in BLU units (SPOT analysis, Myo5 SH3) [2]: 59.9 BLU

NEIELLRPRSPVQK
The normalized value in BLU units (SPOT analysis, Myo5 SH3) [1]: 125.6 BLU

LSGTRLVPNCPLLW
The normalized value in BLU units [3]: 431.8 BLU

PSSHKRKPVIPWDA
The normalized value in BLU units [4]: 289.2 BLU

SLGERFMPMAPEVY
The normalized value in BLU units (SPOT analysis, Myo5 SH3) [2]: 139.8 BLU

AAMMLGNPMAPAVQ
The normalized value in BLU units [3]: 256.9 BLU

MKPQKIAPKFPGTV
The normalized value in BLU units [4]: 415.8 BLU

VPAILMTPICPRSL
The normalized value in BLU units (SPOT analysis, Myo5 SH3) [1]: 138.1 BLU

SFRKLASPSNPNFF
The normalized value in BLU units (SPOT analysis, Myo5 SH3) [1]: 208.8 BLU

EEQVKEKPNEPEGK
The normalized value in BLU units [3]: 134.2 BLU

APKYYVPPGIPTND
The normalized value in BLU units (SPOT analysis, Myo5 SH3) [1]: 10351.6 BLU

IPAPKLVPPPPRTR
The normalized value in BLU units [4]: 82308.4 BLU

SPFTFLFPFLPTII
The normalized value in BLU units (SPOT analysis, Myo5 SH3) [1]: 366.0 BLU

LNPNRRAPRRPLST
The normalized value in BLU units (SPOT analysis, Myo5 SH3) [2]: 8004.0 BLU

RLLALFIPALPFII
The normalized value in BLU units [3]: 264.8 BLU

EAHQHHQPPEPQPY
The normalized value in BLU units (SPOT analysis, Myo5 SH3) [1]: 0.0 BLU

PFIDYEFPHLPNEL
The normalized value in BLU units [3]: 98.9 BLU

IPLPHQPPPLPIYS
The normalized value in BLU units (SPOT analysis, Myo5 SH3) [1]: 53588.9 BLU

LKDNRLLPSWPKRG
The normalized value in BLU units (SPOT analysis, Myo5 SH3) [2]: 518.0 BLU

YLLELPDPLIPNDV
The normalized value in BLU units (SPOT analysis, Myo5 SH3) [1]: 162.7 BLU

NESEKSSPWSPYKV
The normalized value in BLU units [4]: 221.5 BLU

MLNEHGVPVVPSRE
The normalized value in BLU units [3]: 199.3 BLU

SFVTKYLPAAPVGS
The normalized value in BLU units (SPOT analysis, Myo5 SH3) [2]: 214.9 BLU

FSKKKEAPEDPKNL
The normalized value in BLU units (SPOT analysis, Myo5 SH3) [2]: 148.1 BLU

PSAMKLVPSIPPAT
The normalized value in BLU units (SPOT analysis, Myo5 SH3) [2]: 561.3 BLU

NASLLRDPSAPYAH
The normalized value in BLU units (SPOT analysis, Myo5 SH3) [1]: 133.8 BLU

FRPHRLAPSAPATK
The normalized value in BLU units [4]: 1405.4 BLU

ALLIKTVPGFPLLE
The normalized value in BLU units (SPOT analysis, Myo5 SH3) [2]: 144.3 BLU

SETARKVPPIPTQI
The normalized value in BLU units [4]: 420.1 BLU

EPEPLMSPVPPSSA
The normalized value in BLU units [3]: 215.2 BLU

GQQKRFSPSLPSAV
The normalized value in BLU units [4]: 728.5 BLU

LPFPRKNPKLPENT
The normalized value in BLU units (SPOT analysis, Myo5 SH3) [2]: 147.2 BLU

KLGRFTNPQQPRED
The normalized value in BLU units (SPOT analysis, Myo5 SH3) [1]: 227.3 BLU

EFDEKLPPKKPAGP
The normalized value in BLU units [3]: 87.3 BLU

GLRWYRSPIYPYLY
The normalized value in BLU units (SPOT analysis, Myo5 SH3) [1]: 468.1 BLU

FLPVFNLPSNPALF
The normalized value in BLU units (SPOT analysis, Myo5 SH3) [1]: 154.3 BLU

PEVLMDQPYSPLSD
The normalized value in BLU units (SPOT analysis, Myo5 SH3) [1]: 78.7 BLU

KLPKLNVPLNPKGK
The normalized value in BLU units (SPOT analysis, Myo5 SH3) [1]: 304.7 BLU

QPPDRNLPSHPSSN
The normalized value in BLU units (SPOT analysis, Myo5 SH3) [2]: 155.8 BLU

IATMYPIPAYPDLL
The normalized value in BLU units (SPOT analysis, Myo5 SH3) [1]: 96.9 BLU

VLFNLDHPMVPENL
The normalized value in BLU units (SPOT analysis, Myo5 SH3) [1]: 220.3 BLU

LIWHKSKPVKPTNK
The normalized value in BLU units [4]: 353.6 BLU

EAFKLPKPWSPNSH
The normalized value in BLU units [3]: 141.0 BLU

ELFTFDMPTDPSSF
The normalized value in BLU units [3]: 44.9 BLU

LLKGYIPPYKPIVK
The normalized value in BLU units (SPOT analysis, Myo5 SH3) [1]: 168.7 BLU

FASQLRKPRAPMRN
The normalized value in BLU units (SPOT analysis, Myo5 SH3) [1]: 459.9 BLU

FNGDRLVPTLPTVS
The normalized value in BLU units [4]: 160.6 BLU
